EC50 data for 24 compounds are collected here from patent US12655125B2 (SIRONAX LTD., priority 2020, dated 2026).

pEC50: −log10 of the molar value.

The assay relates to HT-29 cells. As to the kind of experiment: HT29 Cells 0FBS Assay In Vitro (TNF-α/SMAC mimetic/zVAD-FMK induced necroptosis, CellTiter-Glo cell viability). The class given is cell-based. To be noted: Homo sapiens; HT-29 cells, FBS free medium, TNF-α (10 ng/ml), SMAC mimetic (6 uM), zVAD-FMK (10 μM), 20 hours; geometric mean EC50; read-out: Cell activity (EC50) of Compounds 117-281. The gist of the method:
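HT-29 cells (5,000/well, seeded overnight) in serum-free McCoy's 5A were stimulated with TNF-α 10 ng/ml, SMAC mimetic 6 μM and zVAD-FMK 10 μM to induce necroptosis. Compound added as 10-point 3-fold series for 20 h at 37° C. CellTiter-Glo luminescence gives viability; EC50 is geometric mean of duplicate dose-responses.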
For orientation: Cellular ATP, detected with luciferase, serves as a proxy for viable cell number.
For orientation: pEC50 means the EC50 on a negative log10 scale, so that one unit is a factor of ten. `Cc1nc(C)n(-c2cc(OC3CN(C(=O)N4N=CC[C@H]4c4cc(F)cc(F)c4)C3)c(F)cn2)c1C` [compound 152, (S)-(5-(3,5-difluorophenyl)-4,5-dihydro-1H-pyrazol-1-yl)(3-((5-fluoro-2-(2,4,5-trimethyl-11H-imidazol-1-yl)pyridin-4-yl)oxy)azetidin-1-yl)methanone]: the pEC50 is 7.00 to 10.00.

Regarding `CCOC(=O)c1[nH]c(C)c(-c2cc(OC3CN(C(=O)N4N=CC[C@H]4c4cc(F)cc(F)c4)C3)c(F)cn2)c1C` [compound 153, Ethyl (S)-4-(4-((1-(5-(3,5-difluorophenyl)-4,5-dihydro-1H-pyrazole-1-carbonyl)azetidin-3-yl)oxy)-5-fluoropyridin-2-yl)-3,5-dimethyl-1H-pyrrole-2-carboxylate], the pEC50 is 7.00 to 10.00.

For `CNc1cc(-c2cc(OC3CN(C(=O)N4N=CC[C@H]4c4cc(F)cc(F)c4)C3)c(F)cn2)n(C)n1` [compound 154], the negative-log EC50 (pEC50) is 7.00 to 10.00.

Consider `COCc1c(C)nn(-c2cc(OC3CN(C(=O)N4N=CC[C@H]4c4cc(F)cc(F)c4)C3)c(F)cn2)c1C` [compound 155, (S)-(5-(3,5-difluorophenyl)-4,5-dihydro-1H-pyrazol-1-yl)(3-((5-fluoro-2-(4-(methoxymethyl)-3,5-dimethyl-1H-pyrazol-1-yl)pyridin-4-yl)oxy)azetidin-1-yl)methanone], for which the negative logarithm of the EC50 (pEC50) is 7.00 to 10.00.

Regarding `Cc1nn(CCO)c(C)c1-c1ncc(F)c(OC2CN(C(=O)N3N=CC[C@H]3c3cc(F)cc(F)c3)C2)n1` [compound 156, (S)-(5-(3,5-difluorophenyl)-4,5-dihydro-1H-pyrazol-1-yl)(3-((5-fluoro-2-(1-(2-hydroxyethyl)-3,5-dimethyl-1H-pyrazol-4-yl)pyrimidin-4-yl)oxy)azetidin-1-yl)methanone], the pEC50 was 7.00 to 10.00.

As to `Cc1nn(C2CCOCC2)c(C)c1-c1cc(OC2CN(C(=O)N3N=CC[C@H]3c3cc(F)cc(F)c3)C2)c(F)cn1` [compound 157, (S)-(5-(3,5-difluorophenyl)-4,5-dihydro-1H-pyrazol-1-yl)(3-((2-(3,5-dimethyl-1-(tetrahydro-2H-pyran-4-yl)-1H-pyrazol-4-yl)-5-fluoropyridin-4-yl)oxy)azetidin-1-yl)methanone], the negative logarithm of the EC50 (pEC50) was 7.00 to 10.00.

Take `Cc1nn(CC2CC2)c(C)c1-c1ncc(F)c(OC2CN(C(=O)N3N=CC[C@H]3c3cc(F)cc(F)c3)C2)n1` [compound 158, (S)-(3-((2-(1-(cyclopropylmethyl)-3,5-dimethyl-1H-pyrazol-4-yl)-5-fluoropyrimidin-4-yl)oxy)azetidin-1-yl)(5-(3,5-difluorophenyl)-4,5-dihydro-1H-pyrazol-1-yl)methanone]: the negative-log EC50 (pEC50) was 7.00 to 10.00.

In the case of `Cc1nn(C)c(C)c1-c1cc(OC2CN(C(=O)N3N=CC[C@H]3c3cc(F)cc(F)c3)C2)c(F)cn1` [compound 159, (S)-(5-(3,5-difluorophenyl)-4,5-dihydro-1H-pyrazol-1-yl)(3-((5-fluoro-2-(1,3,5-trimethyl-1H-pyrazol-4-yl)pyridin-4-yl)oxy)azetidin-1-yl)methanone], the pEC50 is 7.00 to 10.00.

`COCCNc1nn(C)c(-c2cc(OC3CN(C(=O)N4N=CC[C@H]4c4cc(F)cc(F)c4)C3)c(F)cn2)c1C` [compound 160, (S)-(5-(3,5-difluorophenyl)-4,5-dihydro-1H-pyrazol-1-yl)(3-((5-fluoro-2-(3-((2-methoxyethyl)amino)-1,4-dimethyl-1H-pyrazol-5-yl)pyridin-4-yl)oxy)azetidin-1-yl)methanone]: the negative logarithm of the EC50 (pEC50) was 7.00 to 10.00.

With `Cc1ccc(C(N)=O)n1-c1cc(OC2CN(C(=O)N3N=CC[C@H]3c3cc(F)cc(F)c3)C2)c(F)cn1` [compound 161, (S)-1-(4-((1-(5-(3,5-difluorophenyl)-4,5-dihydro-1H-pyrazole-1-carbonyl)azetidin-3-yl)oxy)-5-fluoropyridin-2-yl)-5-methyl-1H-pyrrole-2-carboxamide], the negative logarithm of the EC50 (pEC50) was 7.00 to 10.00.

In the case of `Cc1c(NC(C)C)nn(C)c1-c1cc(OC2CN(C(=O)N3N=CC[C@H]3c3cc(F)cc(F)c3)C2)c(F)cn1` [compound 162, (S)-(5-(3,5-difluorophenyl)-4,5-dihydro-1H-pyrazol-1-yl)(3-((5-fluoro-2-(3-(isopropylamino)-1,4-dimethyl-1H-pyrazol-5-yl)pyridin-4-yl)oxy)azetidin-1-yl)methanone], the pEC50 is 7.00 to 10.00.

As to `Cc1c(NCC2CC2)nn(C)c1-c1cc(OC2CN(C(=O)N3N=CC[C@H]3c3cc(F)cc(F)c3)C2)c(F)cn1` [compound 163, (S)-(3-((2-(3-((cyclopropylmethyl)amino)-1,4-dimethyl-1H-pyrazol-5-yl)-5-fluoropyridin-4-yl)oxy)azetidin-1-yl)(5-(3,5-difluorophenyl)-4,5-dihydro-1H-pyrazol-1-yl)methanone], the pEC50 was 7.00 to 10.00.

For the compound `Cc1c(N(C)CC2CC2)nn(C)c1-c1cc(OC2CN(C(=O)N3N=CC[C@H]3c3cc(F)cc(F)c3)C2)c(F)cn1` [compound 164, (S)-(3-((2-(3-((cyclopropylmethyl)(methyl)amino)-1,4-dimethyl-1H-pyrazol-5-yl)-5-fluoropyridin-4-yl)oxy)azetidin-1-yl)(5-(3,5-difluorophenyl)-4,5-dihydro-1H-pyrazol-1-yl)methanone], the pEC50 is 7.00 to 10.00.

`Cc1c(C(N)=O)nn(C)c1-c1cc(OC2CN(C(=O)N3N=CC[C@H]3c3cc(F)cc(F)c3)C2)c(F)cn1` [compound 165, (S)-5-(4-((1-(5-(3,5-difluorophenyl)-4,5-dihydro-1H-pyrazole-1-carbonyl)azetidin-3-yl)oxy)-5-fluoropyridin-2-yl)-1,4-dimethyl-1H-pyrazole-3-carboxamide]: the negative-log EC50 (pEC50) was 7.00 to 10.00.

For the compound `CN(C)c1cc(-c2cc(OC3CN(C(=O)N4N=CC[C@H]4c4cc(F)cc(F)c4)C3)c(F)cn2)n(C)n1` [compound 166, (S)-(5-(3,5-difluorophenyl)-4,5-dihydro-1H-pyrazol-1-yl)(3-((2-(3-(dimethylamino)-1-methyl-1H-pyrazol-5-yl)-5-fluoropyridin-4-yl)oxy)azetidin-1-yl)methanone], the pEC50 was 7.00 to 10.00.

With `CCS(=O)(=O)c1c(C)nn(-c2cc(OC3CN(C(=O)N4N=CC[C@H]4c4cc(F)cc(F)c4)C3)c(F)cn2)c1C` [compound 167, (S)-(5-(3,5-difluorophenyl)-4,5-dihydro-1H-pyrazol-1-yl)(3-((2-(4-(ethylsulfonyl)-3,5-dimethyl-1H-pyrazol-1-yl)-5-fluoropyridin-4-yl)oxy)azetidin-1-yl)methanone], the negative logarithm of the EC50 (pEC50) was 7.00 to 10.00.

For `Cc1c(-c2cc(OC3CN(C(=O)N4N=CC[C@H]4c4cc(F)cc(F)c4)C3)c(F)cn2)c(CO)nn1CC1CC1` [compound 168, (S)-(3-((2-(1-(cyclopropylmethyl)-3-(hydroxymethyl)-5-methyl-1H-pyrazol-4-yl)-5-fluoropyridin-4-yl)oxy)azetidin-1-yl)(5-(3,5-difluorophenyl)-4,5-dihydro-1H-pyrazol-1-yl)methanone], the pEC50 was 7.00 to 10.00.

For `Cc1c(-c2cc(OC3CN(C(=O)N4N=CC[C@H]4c4cc(F)cc(F)c4)C3)c(F)cn2)c(CO)nn1CC1COC1` [compound 169, (S)-(5-(3,5-difluorophenyl)-4,5-dihydro-1H-pyrazol-1-yl)(3-((5-fluoro-2-(3-(hydroxymethyl)-5-methyl-1-(oxetan-3-ylmethyl)-1H-pyrazol-4-yl)pyridin-4-yl)oxy)azetidin-1-yl)methanone], the negative-log EC50 (pEC50) was 5.00 to 6.00.

Consider `Cc1cc(C(F)(F)F)nn1-c1cc(OC2CN(C(=O)N3N=CC[C@H]3c3cc(F)cc(F)c3)C2)c(F)cn1` [compound 170, (S)-(5-(3,5-difluorophenyl)-4,5-dihydro-1H-pyrazol-1-yl)(3-((5-fluoro-2-(5-methyl-3-(trifluoromethyl)-1H-pyrazol-1-yl)pyridin-4-yl)oxy)azetidin-1-yl)methanone], for which the negative-log EC50 (pEC50) is 7.00 to 10.00.

Turning to `CN(C)C(=O)c1cc(-c2cc(OC3CN(C(=O)N4N=CC[C@H]4c4cc(F)cc(F)c4)C3)c(F)cn2)n(C)n1` [compound 171, (S)-5-(4-((1-(5-(3,5-difluorophenyl)-4,5-dihydro-1H-pyrazole-1-carbonyl)azetidin-3-yl)oxy)-5-fluoropyridin-2-yl)-N,N,1-trimethyl-11H-pyrazole-3-carboxamide], the pEC50 was 7.00 to 10.00.

Take `Cn1nc(C(N)=O)cc1-c1cc(OC2CN(C(=O)N3N=CC[C@H]3c3cc(F)cc(F)c3)C2)c(F)cn1` [compound 172, (S)-5-(4-((1-(5-(3,5-difluorophenyl)-4,5-dihydro-1H-pyrazole-1-carbonyl)azetidin-3-yl)oxy)-5-fluoropyridin-2-yl)-1-methyl-1H-pyrazole-3-carboxamide]: the pEC50 was 7.00 to 10.00.

`Cn1nc(C#N)cc1-c1cc(OC2CN(C(=O)N3N=CC[C@H]3c3cc(F)cc(F)c3)C2)c(F)cn1` [compound 173, (S)-5-(4-((1-(5-(3,5-difluorophenyl)-4,5-dihydro-1H-pyrazole-1-carbonyl)azetidin-3-yl)oxy)-5-fluoropyridin-2-yl)-1-methyl-11H-pyrazole-3-carbonitrile]: the pEC50 is 7.00 to 10.00.

In the case of `Cn1nc(CO)cc1-c1cc(OC2CN(C(=O)N3N=CC[C@H]3c3cc(F)cc(F)c3)C2)c(F)cn1` [compound 174, (S)-(5-(3,5-difluorophenyl)-4,5-dihydro-1H-pyrazol-1-yl)(3-((5-fluoro-2-(3-(hydroxymethyl)-1-methyl-1H-pyrazol-5-yl)pyridin-4-yl)oxy)azetidin-1-yl)methanone], the pEC50 was 7.00 to 10.00.

`Cc1c(Cl)nn(C)c1-c1cc(OC2CN(C(=O)N3N=CC[C@H]3c3cc(F)cc(F)c3)C2)c(F)cn1` [compound 175, (S)-(3-((2-(3-chloro-1,4-dimethyl-1H-pyrazol-5-yl)-5-fluoropyridin-4-yl)oxy)azetidin-1-yl)(5-(3,5-difluorophenyl)-4,5-dihydro-1H-pyrazol-1-yl)methanone]: the negative logarithm of the EC50 (pEC50) is 7.00 to 10.00.
